Test system: adult subjects with Major Depressive Disorder
Experiment: Phase 3 open-label 1-year study: HAM-D total score, response and remission
Format: in vivo, human
Excerpt: Secondary Objective: To assess the need for re-treatment with Compound (1) following initial treatment in adults with MDD currently experiencing an MDE over a 1-year period, and to assess the response of initial treatment and re-treatment(s) with Compound (1) following an initial 2-week treatment period in adults with MDD currently experiencing an MDE over a 1-year period.
Secondary Endpoints: The need for re-treatment with Compound (1) as assessed by: time to first re-treatment (Kaplan-Meier curves), number of subjects achieving the requirements for re-treatment, number of re-treatment cycles for each subject, the response of initial treatment and/or re-treatment as assessed by: change from baseline in the 17-item Hamilton Rating Scale for Depression (HAM-D) total score at the end of each 14-day treatment (initial and/or re-treatment) period, HAM-D response at the end of each 14-day treatment (initial and/or re-treatment) period, defined as a ≥50% reduction in HAM-D score from baseline, HAM-D remission at the end of each 14-day treatment (initial and/or re-treatment) period, defined as HAM-D total score≤7, Clinical Global Impression-Improvement (CGI-I) response, defined as “much improved” or “very much improved”, at the end of each 14-day treatment (initial and/or re-treatment) period, change from baseline in Clinical Global Impression-Severity (CGI-S) score at the end of each 14-day treatment (initial and/or re-treatment) period.
Study Population: Subjects were 18-75 years old, diagnosed with major depressive disorder (MDD) with a MADRS total score of ≥28 and a HAM-D total score of ≥20 at Screening and Day 1 (prior to dosing).
Treatment Groups: The 30 mg and 50 mg dose groups were separated by time of enrollment. The study is comprised of two cohorts: one with Compound (1) 30 mg as a starting dose (30 mg Cohort: n=725), an initial cohort with Compound (1) 50 mg as a starting dose (50 mg Cohort: n=199). A patient receiving Compound (1) 30 mg could be dose reduced to 20 mg and patients receiving Compound (1) 50 mg could be dose reduced to 40 mg (based on tolerability). In all cohorts, Compound (1) is self-administered by patients as an oral therapy once nightly with food for 14 days.
Eligible subjects were given Compound (1)—to be taken at home in the evening with meal.
The cohorts pertaining to the different doses that the subjects received were defined as following: • 50 mg cohort: This cohort includes subjects who have initiated treatment with 50 mg and received re-treatment with 50 mg only. • 30 mg cohort: This cohort includes subjects who have initiated treatment with 30 mg regardless of the dose they have received in re-treatments. • Low dose cohort: This cohort includes subjects who have initiated treatment with 30 mg and received re-treatment with 30 mg only. • Dose switch cohort: This cohort includes subjects who have received initial treatment with 30 mg and at least one subsequent re-treatment with 50 mg. • Study Period X: starts on the date of the first dose of Compound (1) in cycle X and goes up to one day prior to the first dose of the next cycle. In some embodiments, X is any number from 1 to 5. • Treatment Period X: starts on the date of the first dose of Compound (1) in cycle X and goes up to one day after the last dose in cycle X. In some embodiments, X is any number from 1 to 5. • Treatment Cycle X: starts on the date of the first dose of Compound (1) in cycle X and goes up to 14 days after the last dose in cycle X. The treatment cycles may be denoted as C1-C5. • Observation period X: starts the day after Treatment Cycle X ends and goes up to one day prior to the start of next treatment cycle. In some embodiments, X is any number from 1 to 5.
Analysis Sets: The safety set was defined as all subjects who were administered study drug. The period-specific safety set includes subjects in the safety set who were administered study drug in the corresponding treatment cycle. […]

[1] = Day 15 of first treatment cycle, overall study population
[2] = Dose Switch Cohort (FAS), first dose in cycle 30 mg, Cycle 2, Day 15
[3] = Dose Switch Cohort (FAS), first dose in cycle 30 mg, Cycle 3, Day 15
[4] = Dose Switch Cohort (FAS), first dose in cycle 30 mg, Cycle 4, Day 15
[5] = Low Dose Cohort (FAS), of Non-responders at D15 in C3 (N = 33)
[6] = Low Dose Cohort (FAS), of Non-responders at D15 in C4 (N = 18)
[7] = Low Dose Cohort (FAS), of Non-responders at D15 in C5 (N = 7)
[8] = Low Dose Cohort (FAS), subjects dosed in Cycle 2 (199), Cycle 1, Day 15
[9] = Low Dose Cohort (FAS), subjects dosed in Cycle 2 (199), Cycle 1, Day 28
[10] = Low Dose Cohort (FAS), subjects dosed in Cycle 2 (199), Cycle 2, Day 15
[11] = Low Dose Cohort (FAS), subjects dosed in Cycle 2 (199), Cycle 2, Day 28
[12] = Low Dose Cohort (FAS), subjects dosed in Cycle 3 (83), Cycle 1, Day 15
[13] = Low Dose Cohort (FAS), subjects dosed in Cycle 3 (83), Cycle 2, Day 15
[14] = Low Dose Cohort (FAS), subjects dosed in Cycle 3 (83), Cycle 2, Day 28
[15] = Low Dose Cohort (FAS), subjects dosed in Cycle 3 (83), Cycle 3, Day 15
[16] = Low Dose Cohort (FAS), subjects dosed in Cycle 3 (83), Cycle 3, Day 28

C[C@@]1(O)CC[C@H]2[C@H](CC[C@@H]3[C@@H]2CC[C@]2(C)[C@@H](C(=O)Cn4cc(C#N)cn4)CC[C@@H]32)C1 [Compound (1), 1-(2-((3R,5R,8R,9R,10S,13S,14S,17S)-3-hydroxy-3,13-dimethylhexadecahydro-1H-cyclopenta[a]phenanthren-17-yl)-2-oxoethyl)-1H-pyrazole-4-carbonitrile]
Withdrawn in Treatment Cycle 1: Exit for non-response, n (%) (50 mg Cohort (n = 199)): 31 (15.6%)
Subjects achieving remission (HAM-D less than or equal to 7) (50 mg Cohort, Day 15 Treatment Cycle 1, Example 4, 80 subjects of 199): 40.2%
Subjects achieving response (at least 50% reduction in HAM-D from baseline) (50 mg Cohort, Day 15 Treatment Cycle 1, Example 4, about 149 subjects of 199): 74.9%
HAMD-17 remission rate [1]: 40.8%
HAMD-17 response rate [1]: 75.0%
Mean (SD) CFB in HAMD-17 (Day 15 of first treatment cycle, overall study population (30 mg and 50 mg Cohorts)): −15.4 (6.9)
Responders at D15 in C1 who did not discontinue in C1 (FAS), % of subjects dosed in C1 (Dose Switch Cohort (80 dosed)): 80 (100%)
HAM-D Total Score, Mean Change from Period-Specific Baseline [2]: −15.5
HAM-D Total Score, Mean Percent Change from Period-Specific Baseline [2]: −59.1
HAM-D Total Score, Mean Change from Period-Specific Baseline [3]: −15.8
HAM-D Total Score, Mean Percent Change from Period-Specific Baseline [3]: −60.0
HAM-D Total Score, Mean Change from Period-Specific Baseline [4]: −14.8
HAM-D Total Score, Mean Percent Change from Period-Specific Baseline [4]: −60.0
Responders at D15 in C1 who did not discontinue in C1 (FAS), % of subjects dosed in C1 (Low Dose Cohort (645 dosed)): 409 (63.4%)
HAM-D Non-responder rate at D15 (of subjects dosed in cycle) (Low Dose Cohort (FAS), C2 (N = 70 of 199)): (N = 70, 35.2%)
HAM-D Non-responder rate at D15 (of subjects dosed in cycle) (Low Dose Cohort (FAS), C3 (N = 33 of 83)): (N = 33, 39.8%)
HAM-D Non-responder rate at D15 (of subjects dosed in cycle) (Low Dose Cohort (FAS), C4 (N = 18 of 43)): (N = 18, 41.9%)
HAM-D Non-responder rate at D15 (of subjects dosed in cycle) (Low Dose Cohort (FAS), C5 (N = 7 of 20)): (N = 7, 35%)
Status in C2: Non-responder [5]: (57.6%)
Status in C2: Responder [5]: (42.4%)
Status in C2: Non-responder [6]: (55.6%)
Status in C2: Responder [6]: (44.4%)
Status in C3: Non-responder [6]: 9 (50.0%)
Status in C3: Responder [6]: (50.0%)
Status in C2: Non-responder [7]: (85.7%)
Status in C2: Responder [7]: (14.3%)
Status in C3: Non-responder [7]: 3 (42.9%)
Status in C3: Responder [7]: (57.1%)
Status in C4: Non-responder [7]: 5 (71.4%)
Status in C4: Responder [7]: 1 (14.4%)
HAM-D Total Score, Mean Change from Period-Specific Baseline [8]: −17.4
HAM-D Total Score, Mean Percent Change from Period-Specific Baseline [8]: −70.0
HAM-D Total Score, Mean Change from Period-Specific Baseline [9]: −13.8
HAM-D Total Score, Mean Percent Change from Period-Specific Baseline [9]: −55.2
HAM-D Total Score, Mean Change from Period-Specific Baseline [10]: −12.3
HAM-D Total Score, Mean Percent Change from Period-Specific Baseline [10]: −52.6
HAM-D Total Score, Mean Change from Period-Specific Baseline [11]: −11.5
HAM-D Total Score, Mean Percent Change from Period-Specific Baseline [11]: −49.1
HAM-D Total Score, Mean Change from Period-Specific Baseline [12]: −17.2
HAM-D Total Score, Mean Percent Change from Period-Specific Baseline [12]: −68.8
HAM-D Total Score, Mean Change from Period-Specific Baseline (Low Dose Cohort (FAS), subjects dosed in Cycle 3 (83), Cycle 1, Day 28): 83, −12.7, —
HAM-D Total Score, Mean Change from Period-Specific Baseline [13]: −12.7
HAM-D Total Score, Mean Percent Change from Period-Specific Baseline [13]: −52.9
HAM-D Total Score, Mean Change from Period-Specific Baseline [14]: −11.2
HAM-D Total Score, Mean Percent Change from Period-Specific Baseline [14]: −46.5
HAM-D Total Score, Mean Change from Period-Specific Baseline [15]: −12.5
HAM-D Total Score, Mean Percent Change from Period-Specific Baseline [15]: −52.4
HAM-D Total Score, Mean Change from Period-Specific Baseline [16]: −11.9
HAM-D Total Score, Mean Percent Change from Period-Specific Baseline [16]: −49.8
HAM-D Total Score, Mean Change from Period-Specific Baseline (Low Dose Cohort (FAS), subjects dosed in Cycle 4 (43), Cycle 1, Day 15): −17.0

— patent US20240245711A1, “A 19-NOR C3,3-DISUBSTITUTED C21-N-PYRAZOLYL STEROID FOR THE TREATMENT OF MAJOR DEPRESSIVE DISORDER” (Sage Therapeutics, Inc., priority 2021, published 2024)
